Laboratory results: BigSolDB 2.1

O=C(/C=C/c1ccc(O)c(O)c1)O[C@H](Cc1ccc(O)c(O)c1)C(=O)O
solubility (mole fraction)
Conditions	293.15 K	298.15 K	303.15 K	308.15 K	313.15 K
in ethyl acetate	0.0345	0.0466	0.0506	0.0588	0.0722
in methyl acetate	0.0363	0.049	0.0533	0.0619	0.0764
